The NIST ThermoML archive (doi:10.1021/je050048y)
Numbers after ± are expanded uncertainties.

Assay: mn = molality of the nth substance listed, in mol/kg
Conditions: 298.15 K, 101 kPa, Liquid

Row | viscosity (m1 = 0.4991) [mPa·s] | viscosity (m1 = 1.999) [mPa·s] | viscosity (m1 = 3) [mPa·s] | viscosity (m1 = 0.1003) [mPa·s] | viscosity (m1 = 0.4995) [mPa·s] | viscosity (m1 = 0.7497) [mPa·s] | viscosity (m1 = 1) [mPa·s] | SMILES
1 | 0.956 ± 0.036 | 1.189 ± 0.043 | 1.374 ± 0.049 |  |  |  |  | NCC(=O)O [2-aminoacetic acid] + O
2 |  |  |  | 0.918 ± 0.034 | 1.017 ± 0.038 | 1.079 ± 0.04 | 1.152 ± 0.042 | C[C@H](N)C(=O)O [(S)-2-aminopropanoic acid] + O
